What was measured:
[1] = target: Delta-type opioid receptor (Rattus norvegicus, UniProt P33533); assay: Displacement of [3H]DADLE from delta opioid receptor in rat cerebellum membrane; type: cell membranes
[2] = target: Kappa-type opioid receptor (Cavia porcellus, UniProt P41144); assay: Displacement of [3H]U-69593 from kappa opioid receptor in guinea pig cerebellum; type: tissue-based
Mu-type opioid receptor = Mu-type opioid receptor (Rattus norvegicus, UniProt P33535); assay: Displacement of [3H]DAMGO from mu opioid receptor in rat cerebellum membrane; type: cell membranes
Mu-type opioid receptor, sequence (P33535 whole entry): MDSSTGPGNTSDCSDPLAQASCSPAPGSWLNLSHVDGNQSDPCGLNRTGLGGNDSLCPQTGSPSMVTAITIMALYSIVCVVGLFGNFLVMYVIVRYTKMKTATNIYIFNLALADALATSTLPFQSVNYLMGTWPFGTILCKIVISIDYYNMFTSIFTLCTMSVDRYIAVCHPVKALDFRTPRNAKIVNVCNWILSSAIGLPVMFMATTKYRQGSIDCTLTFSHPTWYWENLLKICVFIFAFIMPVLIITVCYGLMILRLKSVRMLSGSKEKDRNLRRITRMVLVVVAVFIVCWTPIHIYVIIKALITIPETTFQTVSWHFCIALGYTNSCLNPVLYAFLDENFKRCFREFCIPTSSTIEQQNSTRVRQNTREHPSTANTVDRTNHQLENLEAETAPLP

[3] = Selectivity ratio of Ki for kappa opioid receptor in guinea pig cerebellum to Ki for delta opioid receptor in rat cerebellum membrane; type: cell membranes
Rattus norvegicus = species: Rattus norvegicus; assay: Selectivity ratio of Ki for mu opioid receptor in rat cerebellum membrane to Ki for delta opioid receptor in rat cerebellum membrane; type: cell membranes
[4] = target: T1, Delta-type opioid receptor (Homo sapiens, UniProt P41143); assay: Ratio of EC50 for drug to EC50 for TAN-67 against human recombinant delta opioid receptor
T1 sequence (P41143 whole entry): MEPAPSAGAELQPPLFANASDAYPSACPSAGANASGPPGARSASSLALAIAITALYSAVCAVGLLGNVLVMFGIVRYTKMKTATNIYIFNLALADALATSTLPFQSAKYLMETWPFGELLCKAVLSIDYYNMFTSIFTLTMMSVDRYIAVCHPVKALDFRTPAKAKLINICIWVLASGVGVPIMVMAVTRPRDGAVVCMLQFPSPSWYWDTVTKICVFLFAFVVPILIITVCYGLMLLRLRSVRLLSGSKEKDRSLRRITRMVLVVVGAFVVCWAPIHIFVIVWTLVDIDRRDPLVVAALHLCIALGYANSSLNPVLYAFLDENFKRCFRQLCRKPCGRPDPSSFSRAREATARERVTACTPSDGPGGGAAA

[5] = target: T1, Delta-type opioid receptor; assay: Agonist activity at human recombinant delta opioid receptor expressed in HEK293 cells by [35S]GTPgammaS binding assay; type: functional, cell-based
[6] = target: T1, Delta-type opioid receptor; assay: Agonist activity at human recombinant delta opioid receptor expressed in CHO cells by [35S]GTPgammaS binding assay; type: functional, cell-based
Mus musculus = assay: Analgesic activity against acetic acid-induced writhing in sc dosed mouse; type: functional

Delta-type opioid receptor (Rattus norvegicus, UniProt P33533), sequence (P33533 whole entry): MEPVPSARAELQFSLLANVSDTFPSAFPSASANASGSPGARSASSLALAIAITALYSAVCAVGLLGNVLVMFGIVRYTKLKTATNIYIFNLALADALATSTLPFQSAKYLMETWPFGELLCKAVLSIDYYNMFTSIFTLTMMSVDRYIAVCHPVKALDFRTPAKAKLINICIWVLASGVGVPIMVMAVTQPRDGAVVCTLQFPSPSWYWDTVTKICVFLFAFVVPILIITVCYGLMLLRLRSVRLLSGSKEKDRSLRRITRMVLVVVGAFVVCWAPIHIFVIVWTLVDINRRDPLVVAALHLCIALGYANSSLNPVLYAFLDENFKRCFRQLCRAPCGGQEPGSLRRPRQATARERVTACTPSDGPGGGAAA
Kappa-type opioid receptor, sequence (P41144 whole entry): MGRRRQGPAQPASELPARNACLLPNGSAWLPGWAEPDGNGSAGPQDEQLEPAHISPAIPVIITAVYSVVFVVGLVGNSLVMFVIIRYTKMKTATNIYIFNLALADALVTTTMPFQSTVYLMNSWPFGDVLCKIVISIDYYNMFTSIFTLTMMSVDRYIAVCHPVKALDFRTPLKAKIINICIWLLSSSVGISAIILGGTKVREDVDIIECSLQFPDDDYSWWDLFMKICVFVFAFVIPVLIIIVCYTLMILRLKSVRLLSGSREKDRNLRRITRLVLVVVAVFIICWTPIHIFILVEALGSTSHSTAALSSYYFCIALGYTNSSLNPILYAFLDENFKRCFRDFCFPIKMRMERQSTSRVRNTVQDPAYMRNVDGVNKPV

Row | SMILES | Ki [1] | Ki [2] | Ki (Mu-type opioid receptor) | Ratio [3] | Ratio (Rattus norvegicus) | Ratio EC50 [4] | EC50 [5] | EC50 [6] | ED50 (Mus musculus)
1 | CC(C)CN1CC[C@]23Cc4nc5ccccc5cc4C[C@H]2[C@H]1Cc1ccc(O)cc13 | 190 pM | 4410 pM | 23600 pM | 23.2 | 124 | 10 | 60 pM | – | –
2 | Oc1ccc2c(c1)[C@]13CCN(CC4CC4)[C@H](C2)[C@@H]1Cc1cc2ccccc2nc1C3 | 190 pM | 360 pM | 770 pM | 1.9 | 4.1 | 10 | 18 pM | – | –
3 | CN1CC[C@]23Cc4nc5ccccc5cc4C[C@H]2[C@H]1Cc1ccc(O)cc13 | 140 pM | 10200 pM | 11500 pM | 72.9 | 82.4 | 10 | 47 pM | – | –
4 | CN1CC[C@]2(c3cccc(O)c3)Cc3nc4ccccc4cc3C[C@H]2C1 | 1440 pM | 732000 pM | 284000 pM | 509 | 197 | – | 700 pM | 1400 pM | 31.4 mg/kg
